pKi: −log10 of the molar value. Bounds are passed on as bounds.

This experiment addresses T1, human AR (Homo sapiens, UniProt P10275).
T1 construct: expressed in transfected cells; host or cells: COS-1 cells
T1 sequence (P10275 1-920): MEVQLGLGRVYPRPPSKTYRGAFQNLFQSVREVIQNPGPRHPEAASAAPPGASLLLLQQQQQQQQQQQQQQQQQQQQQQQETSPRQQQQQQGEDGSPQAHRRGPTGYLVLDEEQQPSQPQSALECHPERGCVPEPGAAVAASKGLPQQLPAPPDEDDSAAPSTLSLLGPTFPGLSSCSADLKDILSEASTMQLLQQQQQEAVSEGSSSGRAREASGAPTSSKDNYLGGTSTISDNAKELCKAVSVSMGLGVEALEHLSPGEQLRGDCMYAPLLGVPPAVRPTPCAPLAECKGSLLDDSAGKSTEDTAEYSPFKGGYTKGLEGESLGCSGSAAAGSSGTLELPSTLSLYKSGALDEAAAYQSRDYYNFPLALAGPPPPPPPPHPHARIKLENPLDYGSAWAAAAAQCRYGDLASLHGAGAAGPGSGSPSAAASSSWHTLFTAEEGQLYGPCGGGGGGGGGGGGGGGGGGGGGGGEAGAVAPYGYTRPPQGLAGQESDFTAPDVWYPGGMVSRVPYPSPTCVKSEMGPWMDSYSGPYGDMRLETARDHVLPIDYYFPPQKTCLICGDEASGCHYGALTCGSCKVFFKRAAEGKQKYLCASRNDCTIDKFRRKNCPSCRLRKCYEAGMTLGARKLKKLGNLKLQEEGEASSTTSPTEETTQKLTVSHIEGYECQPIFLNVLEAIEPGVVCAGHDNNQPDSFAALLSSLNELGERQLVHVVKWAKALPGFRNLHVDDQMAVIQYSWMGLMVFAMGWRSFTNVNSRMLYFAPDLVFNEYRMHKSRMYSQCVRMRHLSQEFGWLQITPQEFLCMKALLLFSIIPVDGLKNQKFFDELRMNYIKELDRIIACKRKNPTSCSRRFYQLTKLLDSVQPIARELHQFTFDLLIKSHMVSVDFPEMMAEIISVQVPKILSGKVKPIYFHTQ
The experiment is described as follows: IR Binding Assay: whole cell competitive binding of test compounds against 3H-DHT in COS-1 cells transfected with pRShAR. Summed up:
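COS-1 cells transfected with pRShAR plus β-Gal reporter, serum-starved 24 h, then exposed to 1 nM ³H-DHT with compounds at 10^−10 to 10^−6 M for 3 h at 37 °C. Bound ³H-DHT counted in lysates, normalized to β-Gal. IC50 from log-logit plot; Ki via Cheng-Prusoff using Kd from Scatchard saturation analysis.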
As to `Cc1c(-c2cccc(C(F)(F)F)c2)n(CC(F)(F)F)c2ccc3[nH]c(=O)cc(Cl)c3c12` [Compound 201, 9-Chloro-1-methyl-2-(3-trifluoromethylphenyl)-3-(2,2,2-trifluoroethyl)-3,6-dihydro-pyrrolo[3,2-f]-quinolin-7-one], the pKi was below 8.00.
Take `CCC1C(C)c2c(ccc3[nH]c(=O)cc(C(F)(F)F)c23)N1CC(F)(F)C(F)(F)F` (racemic) [Compound 179, (±)-2-Ethyl-1-methyl-3-(2,2,3,3,3-pentafluoropropyl)-9-trifluoromethyl-1,2,3,6-tetrahydro-pyrrolo[3,2-f]quinolin-7-one]: the negative logarithm of the Ki (pKi) is above 8.30.
Under `C=CCn1c(C)c(C)c2c3c(C(F)(F)F)cc(=O)[nH]c3ccc21` [Compound 236, 3-Allyl-1,2-dimethyl-9-trifluoromethyl-3,6-dihydro-pyrrolo[3,2-f]quinolin-7-one] stands above 8.30; under `CC1c2c(ccc3[nH]c(=O)cc(Cl)c23)N(CC(F)(F)C(F)(F)F)C1C` (racemic) [Compound 167, (±)-9-Chloro-1,2-dimethyl-3-(2,2,3,3,3-pentafluoropropyl)-1,2,3,6-tetrahydro-pyrrolo[3,2-f]-quinolin-7-one], above 8.30.
Under `Cc1c(-c2nccs2)n(C[C@H](O)C(F)(F)F)c2ccc3[nH]c(=O)cc(Cl)c3c12` [Compound 276, (S)-9-Chloro-1-methyl-2-(1,3-thiazol-2-yl)-3-(3,3,3-trifluoro-2-hydroxy-propyl)-3,6-dihydro-pyrrolo[3,2-f]quinolin-7-one] stands below 8.00.
Then `Cc1ccc(-c2c(C)c3c4c(Cl)cc(=O)[nH]c4ccc3n2C[C@@H](O)C(F)(F)F)s1` [Compound 285, (R)-9-Chloro-1-methyl-2-(5-methylthiophen-2-yl)-3-(3,3,3-trifluoro-2-hydroxy-propyl)-3,6-dihydro-pyrrolo[3,2-f]quinolin-7-one], with above 8.30.
`CCc1c(C)c2c3c(C(F)(F)F)cc(=O)[nH]c3ccc2n1CCCO` [Compound 286] showed a negative-log Ki (pKi) above 8.30.
Then `CCCc1c(C)n(CC(F)(F)F)c2ccc3[nH]c(=O)cc(Cl)c3c12` [Compound 210, 9-Chloro-2-methyl-1-propyl-3-(2,2,2-trifluoroethyl)-3,6-dihydro-pyrrolo[3,2-f]quinolin-7-one], with above 8.30; and `Cc1c(-c2ccccc2F)[nH]c2ccc3[nH]c(=O)cc(Cl)c3c12` [Compound 119, 9-Chloro-2-(2-fluorophenyl)-1-methyl-3,6-dihydro-pyrrolo[3,2-f]quinolin-7-one], with above 8.30.
Take `CCc1c(C)c2c3c(Cl)cc(=O)[nH]c3ccc2n1CC(F)(F)Cl` [Compound 222, 9-Chloro-3-(2-chloro-2,2-difluoroethyl)-2-ethyl-1-methyl-3,6-dihydro-pyrrolo[3,2-f]-quinolin-7-one]: the pKi is above 8.30.
Then `CC1c2c(ccc3[nH]c(=O)cc(Cl)c23)N(CC(F)(F)F)C1c1ccc(O)cc1` (racemic) [Compound 155, (±)-9-Chloro-2-(4-hydroxyphenyl)-1-methyl-3-(2,2,2-trifluoroethyl)-1,2,3,6-tetrahydro-pyrrolo[3,2-f]quinolin-7-one], with below 8.00; and `Cc1c(-c2cccs2)n(CC(F)(F)F)c2ccc3[nH]c(=O)cc(Cl)c3c12` [Compound 207, 9-Chloro-1-methyl-2-thien-2-yl-3-(2,2,2-trifluoroethyl)-3,6-dihydro-pyrrolo[3,2-f]quinolin-7-one], with above 8.30; and `Cc1c(C)n(CC(F)(F)F)c2ccc3[nH]c(=O)cc(Cl)c3c12` [Compound 184, 9-Chloro-1,2-dimethyl-3-(2,2,2-trifluoroethyl)-3,6-dihydro-pyrrolo[3,2-f]quinolin-7-one], with above 8.30.
Under `O=c1cc(Cl)c2c3c(ccc2[nH]1)N(CC(F)(F)F)C1CCCCC31` (racemic) [Compound 133, (±)-9-Chloro-1,2-tetramethylene-3-(2,2,2-trifluoro-ethyl)-1,2,3,6-tetrahydro-pyrrolo[3,2-f]quinolin-7-one] stands above 8.30.
Under `CC1c2c(ccc3[nH]c(=O)cc(C(F)(F)F)c23)N(CC(F)(F)C(F)(F)F)C1C` (racemic) [Compound 173, (±)-1,2-Dimethyl-3-(2,2,3,3,3-pentafluoropropyl)-9-trifluoromethyl-1,2,3,6-tetrahydro-pyrrolo[3,2-f]quinolin-7-one] stands above 8.30; under `Cc1c(-c2ccccc2)n(C[C@@H](O)C(F)(F)F)c2ccc3[nH]c(=O)cc(Cl)c3c12` [Compound 280, 9-Chloro-1-methyl-2-phenyl-3-(3,3,3-trifluoro-2-hydroxy-propyl)-3,6-dihydro-pyrrolo[3,2-f]quinolin-7-one], below 8.00.
`CC1c2c(ccc3[nH]c(=O)cc(Cl)c23)N(CC(F)F)C1C` (racemic) [Compound 143, (±)-9-Chloro-3-(2,2-difluoroethyl)-1,2-dimethyl-1,2,3,6-tetrahydro-pyrrolo[3,2-f]quinolin-7-one] showed a pKi of 8.00 to 8.30.
As to `CCC1C(C)c2c(ccc3[nH]c(=O)cc(Cl)c23)N1CC(F)(F)Cl` (racemic) [Compound 176, (±)-9-Chloro-3-(2-Chloro-2,2-difluoroethyl)-2-ethyl-1-methyl-1,2,3,6-tetrahydro-pyrrolo[3,2-f]quinolin-7-one], the pKi is above 8.30.
As to `Cc1c(C)n(CC(F)(F)C(F)(F)F)c2ccc3[nH]c(=O)cc(Cl)c3c12` [Compound 215, 9-Chloro-1,2-dimethyl-3-(2,2,3,3,3-pentafluoropropyl)-3,6-dihydro-pyrrolo[3,2-f]-quinolin-7-one], the negative-log Ki (pKi) was above 8.30.
Under `Cc1c(C)n(C[C@H](O)CO)c2ccc3[nH]c(=O)cc(C(F)(F)F)c3c12` [Compound 295, (S)-3-(2,3-dihydroxypropyl)-1,2-dimethyl-9-trifluoromethyl-3,6-dihydro-pyrrolo[3,2-f]-quinolin-7-one] stands below 8.00; under `COc1ccc(C2C(C)c3c(ccc4[nH]c(=O)cc(Cl)c34)N2CC(F)(F)F)cc1` (racemic) [Compound 148, (±)-9-Chloro-2-(4-methoxy-phenyl)-1-methyl-3-(2,2,2-trifluoroethyl)-1,2,3,6-tetrahydro-pyrrolo[3,2-f]quinolin-7-one], 8.00 to 8.30.
Then `Cc1c(-c2ccccc2)n(CCC(F)(F)F)c2ccc3[nH]c(=O)cc(Cl)c3c12` [Compound 217, 9-Chloro-1-methyl-2-phenyl-3-(3,3,3-trifluoropropyl)-3,6-dihydropyrrolo[3,2-f]-quinolin-7-one], with above 8.30; and `CCCC1c2c(ccc3[nH]c(=O)cc(Cl)c23)N(CC(F)(F)F)C1C` (racemic) [Compound 165, (±)-9-Chloro-2-methyl-1-propyl-3-(2,2,2-trifluoroethyl)-1,2,3,6-tetrahydro-pyrrolo[3,2-f]-quinolin-7-one], with above 8.30.
Under `Cc1ccc(-c2c(C)c3c4c(Cl)cc(=O)[nH]c4ccc3n2C[C@@H](O)C(F)(F)F)o1` [Compound 284, (R)-9-Chloro-1-methyl-2-(5-methylfuran-2-yl)-3-(3,3,3-trifluoro-2-hydroxy-propyl)-3,6-dihydro-pyrrolo[3,2-f]quinolin-7-one] stands above 8.30; under `Cc1ccc(-c2c(C)c3c4c(Cl)cc(=O)[nH]c4ccc3n2CC(F)(F)C(F)(F)F)s1` [Compound 268, 9-Chloro-1-methyl-2-(5-methylthiophen-2-yl)-3-(2,2,3,3,3-pentafluoropropyl)-3,6-dihydro-pyrrolo[3,2-f]quinolin-7-one], above 8.30.
Take `Cc1c(C(F)(F)C(F)(F)F)n(CC(F)(F)F)c2ccc3[nH]c(=O)cc(Cl)c3c12` [Compound 255, 9-Chloro-1-methyl-2-(pentafluoroethyl)-3-(2,2,2-trifluoroethyl)-3,6-dihydro-pyrrolo[3,2-f]-quinolin-7-one]: the pKi is above 8.30.
Under `Cc1c(-c2ccc(F)cc2)n(CC(F)(F)F)c2ccc3[nH]c(=O)cc(Cl)c3c12` [Compound 194, 9-Chloro-2-(4-fluorophenyl)-1-methyl-3-(2,2,2-trifluoroethyl)-3,6-dihydro-pyrrolo[3,2-f]quinolin-7-one] stands above 8.30; under `Cc1c(C=O)c2c3c(Cl)cc(=O)[nH]c3ccc2n1CCO` [Compound 192, 9-Chloro-3-(2-hydroxy-ethyl)-2-methyl-7-oxo-6,7-dihydro-3H-pyrrolo[3,2-f]quinoline-1-carbaldehyde], below 8.00; under `COc1ccc(-c2c(C)c3c4c(Cl)cc(=O)[nH]c4ccc3n2CC(F)(F)F)cc1` [Compound 197, 9-Chloro-2-(4-methoxyphenyl)-1-methyl-3-(2,2,2-trifluoroethyl)-3,6-dihydro-pyrrolo[3,2-f]-quinolin-7-one], above 8.30.

A word on the pKi: it is −log10 of the Ki, conventionally taken in molar units. Higher therefore signals a small Ki.

Values taken from patent US8580811B2 (Ligand Pharmaceuticals Incorporated, priority 2005, dated 2013).
